What was measured:
SUPT3H_C268 = target: T1, SUPT3H_C268 (Homo sapiens, UniProt O75486); assay: IA-DTB cysteine engagement; type: binding; settings: 22Rv1 cells, 20 μM probe, 1 h, relative to DMSO
T1 construct: endogenous in cells; host or cells: 22Rv1
T1 sequence (O75486 1-317): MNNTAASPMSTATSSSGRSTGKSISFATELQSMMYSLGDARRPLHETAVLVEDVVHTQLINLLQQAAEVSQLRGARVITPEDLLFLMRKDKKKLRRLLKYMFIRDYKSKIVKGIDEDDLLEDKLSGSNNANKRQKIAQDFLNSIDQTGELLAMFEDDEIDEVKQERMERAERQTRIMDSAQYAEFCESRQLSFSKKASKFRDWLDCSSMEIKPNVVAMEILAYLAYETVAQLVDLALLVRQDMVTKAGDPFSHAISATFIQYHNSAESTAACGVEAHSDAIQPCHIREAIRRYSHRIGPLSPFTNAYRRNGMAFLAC
Method: (§1) Sample preparation: Cells (adherent: 15 cm dishes, suspension: 2 million cells/mL) were treated with electrophilic probes in situ for indicated times and concentrations, washed with ice-cold PBS, and flash frozen in liquid nitrogen. Cell pellets were lysed by sonication (8 pulses, 40% power) in 500 μL ice-cold PBS supplemented with cOmplete protease inhibitors (1 tablet/10 mL of PBS). Whole cell lysates protein content was measured using a standard DC protein assay (Bio-Rad) and 500 μL (2 mg/mL protein content) were treated with 5 μL of 10 mM 1A-DTB (in DMSO) for 1 h at ambient temperature with occasional vortexing. Samples were methanol-chloroform precipitated with the addition of 500 μL ice-cold MeOH and 200 μL CHCl3, vortexed, and centrifuged (10 min, 10,000 g). Without disrupting the protein disk, both top and bottom layers were aspirated and the protein disk was washed with 1 mL ice-cold MeOH and centrifuged (10 min, 10,000 g). The pellets were allowed to air dry, and then re-suspended in 90 μL buffer (9 M urea, 10 mM DTT, 50 mM TEAB pH 8.5). Samples were reduced by heating at 65 C for 20 minutes and water bath sonicated as needed to resuspend the protein pellets, followed by alkylation via addition of 10 μL (500 mM) iodoacetamide and incubated at 37 C for 30 min with shaking. Samples were briefly centrifuged, and probe sonicated once more to ensure complete resuspension, and then diluted with 300 μL buffer (50 mM TEAB pH 8.5) to reach final concentration of 2 M urea. Trypsin (4 μL of 0.25 μg/μL in trypsin resuspension buffer with 25 mM CaCl2)) was added to each sample and digested at 37 C for 2 h to overnight. Digested samples were then diluted with 300 μL wash buffer (50 mM TEAB pH 8.5, 150 mM NaCl, 0.2% NP-40) containing streptavidin-agarose beads (50 μL of 50% slurry in wash buffer) and were rotated at room temperature for 2 hours. Enriched samples were pelleted by centrifugation (2000 g, 2 min) and transferred to BioSpin columns and washed (3×1 mL wash buffer, 3×1 mL PBS, 3×1 mL water). Enriched peptides were eluted by 300 μL 50% acetonitrile with 0.1% formic acid and eluate was evaporated to dryness via speedvac. IA-DTB labeled and enriched peptides were resuspended in 100 μL EPPS buffer (200 mM, pH 8.0) with 30% acetonitrile, vortexed, and water bath sonicated. Samples were TMT labeled with 3 μL of corresponding TMT tag (5 mg tag resuspended in 256 μL acetonitrile), vortexed, and incubated at room temperature for 1 hour. TMT labeling was quenched with the addition of hydroxylamine (5 μL 5% solution in H2O) and incubated for 15 minutes at room temperature. Samples were then acidified with 5 μL formic acid, combined and dried using a SpeedVac. Samples were desalted via Sep-Pak and then high pH fractionated.
(§2) Data processing: Cysteine engagement ratios (probe vs DMSO) were calculated for each peptide-spectra match by dividing each TMT reporter ion intensity by the average intensity for the channels corresponding to DMSO treatment. Peptide-spectra matches were then grouped based on protein ID and residue number (e.g., PSME1 C22), excluding peptides with summed reporter ion intensities for the DMSO channels <10,000, coefficient of variation for DMSO channels >0.5, and non-tryptic peptide sequences. TMT reporter ion intensities were normalized to the median summed signal intensity across channels.
(§3) Filtering of cysteine data: Replicates were combined based on cell line and treatment condition (probe, concentration, duration) by averaging cysteine engagement ratios across all experiments.

TOMM70_C214 = target: T2, TOMM70_C214 (Homo sapiens, UniProt O94826); assay: IA-DTB cysteine engagement; type: binding; settings: 22Rv1 cells, 20 μM probe, 1 h, relative to DMSO
T2 construct: endogenous in cells; host or cells: 22Rv1
T2 sequence (O94826 1-608): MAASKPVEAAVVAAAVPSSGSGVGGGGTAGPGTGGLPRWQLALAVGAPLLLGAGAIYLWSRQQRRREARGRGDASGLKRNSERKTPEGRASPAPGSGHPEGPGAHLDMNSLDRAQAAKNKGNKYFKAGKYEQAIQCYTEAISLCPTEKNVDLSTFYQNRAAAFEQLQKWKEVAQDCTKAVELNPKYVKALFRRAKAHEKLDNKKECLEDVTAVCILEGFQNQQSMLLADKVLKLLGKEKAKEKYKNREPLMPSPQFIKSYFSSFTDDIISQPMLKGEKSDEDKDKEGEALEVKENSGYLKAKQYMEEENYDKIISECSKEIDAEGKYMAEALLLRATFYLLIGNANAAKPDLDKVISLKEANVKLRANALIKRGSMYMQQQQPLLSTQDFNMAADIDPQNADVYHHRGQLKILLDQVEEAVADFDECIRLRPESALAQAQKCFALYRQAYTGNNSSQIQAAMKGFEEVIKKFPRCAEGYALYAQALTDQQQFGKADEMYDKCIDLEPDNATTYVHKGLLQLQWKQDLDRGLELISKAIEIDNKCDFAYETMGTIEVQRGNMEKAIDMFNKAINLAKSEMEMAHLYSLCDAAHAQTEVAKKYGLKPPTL
Method: as §1, §2, §3

Row | Structure (SMILES) | % engagement SUPT3H_C268 (SUPT3H_C268) [%] | % engagement TOMM70_C214 (TOMM70_C214) [%]
1 | C=CC(=O)N1C[C@@H](c2ccc(Br)cc2)[C@H]1C(=O)Nc1cccc2cccnc12 [MY-1A, (2S,3R)-1-acryloyl-3-(4-bromophenyl)-N-(quinolin-8-yl)azetidine-2-carboxamide] | 27 | 7.5
2 | C=CC(=O)N1C[C@H](c2ccc(Br)cc2)[C@@H]1C(=O)Nc1cccc2cccnc12 [MY-1B, (2R,3S)-1-acryloyl-3-(4-bromophenyl)-N-(quinolin-8-yl)azetidine-2-carboxamide] | 34.5 | 29
3 | C=CC(=O)N1C[C@H](c2ccc(Br)cc2)[C@H]1C(=O)Nc1cccc2cccnc12 [MY-3A, (2S,3S)-1-acryloyl-3-(4-bromophenyl)-N-(quinolin-8-yl)azetidine-2-carboxamide] | 62.5 | 30.5
4 | C=CC(=O)N1C[C@H](c2ccc(Br)cc2)[C@H]1C(=O)Nc1cccc2cccnc12 [MY-3B, (2S,3S)-1-acryloyl-3-(4-bromophenyl)-N-(quinolin-8-yl)azetidine-2-carboxamide] | 70.5 | 71.5

— patent US20250034216A1, “STEREOSELECTIVE COVALENT LIGANDS FOR ONCOGENIC AND IMMUNOLOGICAL PROTEINS” (The Scripps Research Institute, priority 2021, published 2025)
